One assay concerns the target T1, IDH2 R172K (Homo sapiens, UniProt P48735, R172K).
T1 sequence (P48735 40-452 R172K): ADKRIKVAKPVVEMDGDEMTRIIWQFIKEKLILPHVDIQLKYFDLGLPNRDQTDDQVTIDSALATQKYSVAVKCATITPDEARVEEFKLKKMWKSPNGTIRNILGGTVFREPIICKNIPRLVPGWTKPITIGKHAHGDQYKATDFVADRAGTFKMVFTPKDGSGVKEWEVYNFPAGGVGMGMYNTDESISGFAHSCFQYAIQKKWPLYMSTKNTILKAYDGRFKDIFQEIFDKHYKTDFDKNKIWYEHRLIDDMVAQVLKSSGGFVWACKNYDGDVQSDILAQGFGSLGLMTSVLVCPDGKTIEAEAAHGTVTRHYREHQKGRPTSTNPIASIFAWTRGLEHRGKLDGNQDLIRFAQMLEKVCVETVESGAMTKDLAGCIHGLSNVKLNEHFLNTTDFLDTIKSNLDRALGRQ
Put plainly: IDH2 R172K enzymatic assay (NADPH cofactor depletion, diaphorase/resazurin readout). In kind it is biochemical. The conditions noted are these: read-out: Enz R172K. A digest of the protocol: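 Compound was preincubated with IDH2 R172K for 1 h at room temperature, then the reaction was started with substrate mix containing 50 μM NADPH and 6.3 mM α-KG. After another 1 h at room temperature, stop mix with diaphorase and resazurin consumed the remaining NADPH, and resorufin fluorescence was read.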
(In general: Alamar Blue is a resazurin reagent that responds to reducing activity.)

In another assay the target is T2, IDH2 R140Q (Homo sapiens, UniProt P48735, R140Q).
T2 sequence (P48735 40-452 R140Q): T1 sequence (P48735 40-452 R172K) with R101Q, K133R
Put plainly: IDH2 R140Q enzymatic assay (cofactor depletion, similar format). In kind it is biochemical.

The subject of assay [1] is U87MG pLVX-IDH2 R140Q-neo cells. Nature of the assay: U87MG pLVX-IDH2 R140Q-neo cell based assay, 2-HG in media by LC-MS at 48 hours. The conditions noted are these: Homo sapiens, U-87 MG. A digest of the protocol: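 U87MG cells stably expressing IDH2 R140Q were seeded overnight, then exposed to compound at 0.2% final DMSO at 37 °C, 5% CO2. 2-HG in the medium was quantified by LC-MS at 48 h. Growth inhibition was read by CellTiter-Glo luminescence at 72 h.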

Changes are numbered by the printed parent chain. Read-outs that look alike come from different tables or passages of the source.

In the case of `CC(C)Nc1nc(Nc2cccc(S(=O)(=O)NC(C)(C)C)c2)nc(-c2ccccc2)n1` [Compound 342, N-tert-butyl-3-(4-(isopropylamino)-6-phenyl-1,3,5-triazin-2-ylamino)benzenesulfonamide], the IC50 was in the range of 1000 to 10000 nM at IDH2 R172K, 100 to 1000 nM on IDH2 R140Q (read-out: Enz R140Q) and 1000 to 10000 nM in assay [1].
For the molecule `CC(C)Nc1nc(Nc2ccc(F)nc2)nc(-c2cccc(Cl)n2)n1` [Compound 344, 6-(6-chloropyridin-2-yl)-N^2-(6-fluoropyridin-3-yl)-N^4-isopropyl-1,3,5-triazine-2,4-diamine], the results for the IC50 (at IDH2 R172K; at IDH2 R140Q (read-out: Enz R140Q); in assay [1]) were less than 100 nM, 100 to 1000 nM and less than 100 nM, respectively.
Take `Fc1ccc(Nc2nc(NC3CCC3)nc(-c3ccccn3)n2)cn1` [Compound 345, N^2-cyclobutyl-N^4-(6-fluoropyridin-3-yl)-6-(pyridin-2-yl)-1,3,5-triazine-2,4-diamine]: the IC50 (at IDH2 R172K; at IDH2 R140Q (read-out: Enz R140Q); in assay [1]) was 100 to 1000 nM in each case.
Take `Cc1cc(Nc2nc(NC(=O)C(C)(C)C)nc(-c3ccccc3)n2)ccn1` [Compound 350]: the IC50 at IDH2 R172K lay in the range of 1000 to 10000 nM; on IDH2 R140Q (read-out: Enz R140Q), 100 to 1000 nM; in assay [1], 100 to 1000 nM.
Turning to `CC(C)Nc1nc(Nc2cccc(S(C)(=O)=O)c2)nc(-c2cccc(C(F)(F)F)n2)n1` [Compound 358, N^2-isopropyl-N^4-(3-(methylsulfonyl)phenyl)-6-(6-(trifluoromethyl)pyridin-2-yl)-1,3,5-triazine-2,4-diamine], the IC50 on IDH2 R172K was 100 to 1000 nM; on IDH2 R140Q (read-out: Enz R140Q), 100 to 1000 nM; in assay [1], less than 100 nM.
On to `CC(C)Nc1nc(Nc2cncc(C(F)(F)F)c2)nc(-c2ccccc2F)n1` [Compound 372, 6-(2-fluorophenyl)-N^2-isopropyl-N^4-(5-(trifluoromethyl)pyridin-3-yl)-1,3,5-triazine-2,4-diamine], for which the IC50 (on IDH2 R172K; at IDH2 R140Q (read-out: Enz R140Q); in assay [1]) was less than 100 nM in each case.
On to `CC(C)Nc1nc(Nc2cncc(F)c2)nc(-c2ccccc2F)n1` [Compound 374, 6-(2-fluorophenyl)-N^2-(5-fluoropyridin-3-yl)-N^4-isopropyl-1,3,5-triazine-2,4-diamine], for which the IC50 (at IDH2 R172K; at IDH2 R140Q (read-out: Enz R140Q); in assay [1]) was less than 100 nM throughout.
As for `CC(C)Nc1nc(Nc2cncc(C(F)(F)F)c2)nc(-c2cccc(C(F)(F)F)n2)n1` [Compound 386, N^2-isopropyl-6-(6-(trifluoromethyl)pyridin-2-yl)-N^4-(5-(trifluoromethyl)pyridin-3-yl)-1,3,5-triazine-2,4-diamine], the IC50 at IDH2 R172K was less than 100 nM; at IDH2 R140Q (read-out: Enz R140Q), 100 to 1000 nM; in assay [1], less than 100 nM.
`CC(C)(O)CNc1nc(Nc2ccnc(C(F)(F)F)c2)nc(-c2cccc(C(F)(F)F)n2)n1` [Compound 409, 2-methyl-1-(4-(6-(trifluoromethyl)pyridin-2-yl)-6-(2-(trifluoromethyl)pyridin-4-ylamino)-1,3,5-triazin-2-ylamino)propan-2-ol]: the IC50 was 100 to 1000 nM on IDH2 R172K, 100 to 1000 nM against IDH2 R140Q (Enz R140Q) and less than 100 nM in assay [1].
In the case of `CC(C)(C)OC(=O)Nc1nc(Nc2ccccc2)nc(-c2ccccc2)n1` [Compound 416, Tert-butyl 4-phenyl-6-(phenylamino)-1,3,5-triazin-2-ylcarbamate], the IC50 was 100 to 1000 nM at IDH2 R172K, less than 100 nM on IDH2 R140Q (read-out: Enz R140Q) and less than 100 nM in assay [1].
Regarding `CC(C)Nc1nc(Nc2ccc(S(C)(=O)=O)cc2)nc(-c2ccccc2)n1` [Compound 452, N2-isopropyl-N4-(4-(methylsulfonyl)phenyl)-6-phenyl-1,3,5-triazine-2,4-diamine], the IC50 on IDH2 R172K is greater than 10000 nM; at IDH2 R140Q (read-out: Enz R140Q) it was 100 to 1000 nM; in assay [1], 1000 to 10000 nM.
The like results for `CC(C)Nc1nc(Nc2cccc(S(C)(=O)=O)c2)nc(-c2nc(F)ccc2F)n1` [Compound 454] were, in that order, 1000 to 10000 nM, 100 to 1000 nM and 100 to 1000 nM.
As to `CC(C)Nc1nc(Nc2cc(F)cc(F)c2)nc(-c2nccc(C(F)(F)F)n2)n1` [Compound 455, N-(3,5-Difluoro-phenyl)-N′-isopropyl-6-(4-trifluoromethyl-pyrimidin-2-yl)-[1,3,5]triazine-2,4-diamine], the IC50 on IDH2 R172K is less than 100 nM; at IDH2 R140Q (read-out: Enz R140Q), 100 to 1000 nM; in assay [1], less than 100 nM.
As to `CC(C)Nc1nc(Nc2cncc(F)c2)nc(-c2ncccc2F)n1` [Compound 456, N-(5-Fluoro-pyridin-3-yl)-6-(3-fluoro-pyridin-2-yl)-N′-isopropyl-[1,3,5]triazine-2,4-diamine], the results for the IC50 (on IDH2 R172K; at IDH2 R140Q (read-out: Enz R140Q); in assay [1]) were 100 to 1000 nM, 100 to 1000 nM and less than 100 nM, respectively.
As for `CC(C)Nc1nc(Nc2cc(F)cc(F)c2)nc(-c2nccc(N)n2)n1` [Compound 458, 6-(4-Amino-pyrimidin-2-yl)-N-(3,5-difluoro-phenyl)-N′-isopropyl-[1,3,5]triazine-2,4-diamine], the IC50 was 100 to 1000 nM at IDH2 R172K, 100 to 1000 nM on IDH2 R140Q (read-out: Enz R140Q) and less than 100 nM in assay [1].
On to `CC(C)Nc1nc(Nc2cc(F)cc(F)c2)nc(-c2ncccc2F)n1` [Compound 459, N-(3,5-Difluoro-phenyl)-6-(3-fluoro-pyridin-2-yl)-N′-isopropyl-[1,3,5]triazine-2,4-diamine], for which the IC50 (at IDH2 R172K; on IDH2 R140Q (read-out: Enz R140Q); in assay [1]) was less than 100 nM each time.
As for `CC(C)Nc1nc(Nc2cc(F)cc(F)c2)nc(-c2nc(F)ccc2F)n1` [Compound 460, N-(3,5-Difluoro-phenyl)-6-(3,6-difluoro-pyridin-2-yl)-N′-isopropyl-[1,3,5]triazine-2,4-diamine], the IC50 (at IDH2 R172K; at IDH2 R140Q (read-out: Enz R140Q); in assay [1]) was less than 100 nM each time.
Regarding `COc1ccc(F)c(-c2nc(Nc3cc(F)cc(F)c3)nc(NC(C)C)n2)n1` [Compound 461, N-(3,5-Difluoro-phenyl)-6-(3-fluoro-6-methoxy-pyridin-2-yl)-N′-isopropyl-[1,3,5]triazine-2,4-diamine], the IC50 (at IDH2 R172K; on IDH2 R140Q (read-out: Enz R140Q); in assay [1]) was less than 100 nM each time.
In the case of `CC(C)Nc1nc(Nc2ccc(F)nc2)nc(-c2cccc(N)n2)n1` [Compound 462, 6-(6-Amino-pyridin-2-yl)-N-(6-fluoro-pyridin-3-yl)-N′-isopropyl-[1,3,5]triazine-2,4-diamine], the IC50 (at IDH2 R172K; at IDH2 R140Q (read-out: Enz R140Q); in assay [1]) was 100 to 1000 nM throughout.
With `CC#Cc1cccc(-c2nc(Nc3cc(F)cc(F)c3)nc(NC(C)C)n2)n1` [Compound 463, N-(3,5-Difluoro-phenyl)-N′-isopropyl-6-(6-prop-1-ynyl-pyridin-2-yl)-[1,3,5]triazine-2,4-diamine], the IC50 on IDH2 R172K is less than 100 nM; at IDH2 R140Q (read-out: Enz R140Q), 100 to 1000 nM; in assay [1], less than 100 nM.
Take `CNc1cccc(-c2nc(Nc3cc(F)cc(F)c3)nc(NC(C)C)n2)n1` [Compound 465]: the IC50 at IDH2 R172K was less than 100 nM; on IDH2 R140Q (read-out: Enz R140Q) it was 100 to 1000 nM; in assay [1], less than 100 nM.
Turning to `CC(C)Nc1nc(Nc2cccc(S(C)(=O)=O)c2)nc(-c2c(F)cccc2F)n1` [Compound 466, 6-(2,6-difluorophenyl)-N2-isopropyl-N4-(3-(methylsulfonyl)phenyl)-1,3,5-triazine-2,4-diamine], the IC50 is 100 to 1000 nM at IDH2 R172K, 100 to 1000 nM on IDH2 R140Q (read-out: Enz R140Q) and less than 100 nM in assay [1].
With `CC#Cc1cccc(-c2nc(Nc3cccc(F)c3)nc(NC(C)C)n2)n1` [Compound 467, N-(3-Fluoro-phenyl)-N′-isopropyl-6-(6-prop-1-ynyl-pyridin-2-yl)-[1,3,5]triazine-2,4-diamine], the IC50 (on IDH2 R172K; on IDH2 R140Q (read-out: Enz R140Q); in assay [1]) was 100 to 1000 nM in each case.
As to `CC(C)Nc1nc(Nc2cncc(C(F)(F)F)c2)nc(-c2cccc(N)n2)n1` [Compound 468, 6-(6-Amino-pyridin-2-yl)-N-isopropyl-N′-(5-trifluoromethyl-pyridin-3-yl)-[1,3,5]triazine-2,4-diamine], the IC50 at IDH2 R172K was less than 100 nM; on IDH2 R140Q (read-out: Enz R140Q), 100 to 1000 nM; in assay [1], less than 100 nM.
Take `CC(C)Nc1nc(Nc2cc(F)cc(F)c2)nc(-c2nc(O)ccc2F)n1` [Compound 469, 6-[4-(3,5-Difluoro-phenylamino)-6-isopropylamino-[1,3,5]triazin-2-yl]-5-fluoro-pyridin-2-ol]: the IC50 (on IDH2 R172K; at IDH2 R140Q (read-out: Enz R140Q); in assay [1]) was less than 100 nM throughout.

These data come from patent US9512107B2, “Therapeutically active compositions and their methods of use” (Agios Pharmaceuticals, Inc., priority 2012, dated 2016).
